Data published in ChEMBL document CHEMBL3272060, “Selective inhibition of the monosynaptic spinal reflex by a series of hydroxylated alkylaminoindans” (J Med Chem, 1977).

How the values were obtained:
Felis catus [1] = assay: Inhibition of electrical stimulation-induced monosynaptic spinal reflex response in unanesthetized decerebrated cat spinal cord segment assessed as duration at 2 mg/kg, iv; assay type: functional
Felis catus [2] = assay: Inhibition of electrical stimulation-induced monosynaptic spinal reflex response in unanesthetized decerebrated cat spinal cord segment at 2 mg/kg, iv relative to control; assay type: functional
Felis catus [3] = assay: Inhibition of electrical stimulation-induced polysynaptic spinal reflex response in unanesthetized decerebrated cat spinal cord segment at 5 mg/kg, iv relative to control; assay type: functional
Felis catus [4] = assay: Toxicity in cat assessed as motor deficit at 2 to 4 mg/kg, iv; assay type: organism-based; design: dose 2-4 mg/kg, route intravenous; details: in vivo
Felis catus [5] = assay: Toxicity in cat assessed as motor deficit at 10 mg/kg, po; assay type: organism-based; design: dose 10 mg/kg, route oral; details: in vivo
Felis catus [6] = assay: Inhibition of electrical stimulation-induced monosynaptic spinal reflex response in unanesthetized decerebrated cat spinal cord segment at 5 mg/kg, iv relative to control; assay type: functional
Felis catus [7] = assay: Inhibition of electrical stimulation-induced monosynaptic spinal reflex response in unanesthetized decerebrated cat spinal cord segment assessed as duration at 5 mg/kg, iv; assay type: functional
Felis catus [8] = assay: Induction of electrical stimulation-induced monosynaptic spinal reflex response in unanesthetized decerebrated cat spinal cord segment at 5 mg/kg, iv relative to control; assay type: functional
Felis catus [9] = assay: Inhibition of electrical stimulation-induced polysynaptic spinal reflex response in unanesthetized decerebrated cat spinal cord segment assessed as duration at 5 mg/kg, iv; assay type: functional
Felis catus [10] = assay: Inhibition of electrical stimulation-induced monosynaptic spinal reflex response in unanesthetized decerebrated cat spinal cord segment assessed as duration at 10 mg/kg, iv; assay type: functional
Felis catus [11] = assay: Inhibition of electrical stimulation-induced polysynaptic spinal reflex response in unanesthetized decerebrated cat spinal cord segment at 2 mg/kg, iv relative to control; assay type: functional
Felis catus [12] = assay: Inhibition of electrical stimulation-induced polysynaptic spinal reflex response in unanesthetized decerebrated cat spinal cord segment at 10 mg/kg, iv relative to control; assay type: functional
Felis catus [13] = assay: Inhibition of electrical stimulation-induced monosynaptic spinal reflex response in unanesthetized decerebrated cat spinal cord segment at 10 mg/kg, iv relative to control; assay type: functional
Felis catus [14] = assay: Induction of electrical stimulation-induced monosynaptic spinal reflex response in unanesthetized decerebrated cat spinal cord segment assessed as duration at 5 mg/kg, iv; assay type: functional

Row | Structure (SMILES) | inhibition in vivo at 5 mg/kg (Felis catus [3]) [%] | Activity (Felis catus [4]) | Activity (Felis catus [5]) | inhibition in vivo at 5 mg/kg (Felis catus [6]) [%] | Time (Felis catus [7]) [h] | further results
1 | OC1CCC2=C(C1)CC(N1CCCCC1)C2 (mixture of isomers; 6) | – | – | – | – | – | Time (Felis catus [1]): 0.25 h; inhibition (INH) (Felis catus [2]): 50%
2 | CC(=O)O[C@H]1CC2=C(CC(N3CCCCC3)C2)C[C@H]1OC(C)=O (stereo not given in full) | 0 | Non-toxic | Non-toxic | 50 | >2 | –
3 | CC(=O)O[C@@H]1CC2=C(CC(N3CCCCC3)C2)C[C@H]1OC(C)=O (relative stereo) | 0 | – | – | 0 | – | –
4 | OC1CCC2=C(C1)CC(NC1CCCCC1)C2 (stereo not given) | 0 | – | – | 0 | – | –
5 | O[C@@H]1CC2CC(CN3CCCCC3)CC2C[C@@H]1O (stereo not given in full) | 0 | – | – | 0 | – | –
6 | CC(=O)O[C@H]1CC2=C(CC(N(C)C)C2)C[C@H]1OC(C)=O.Cc1ccc(S(=O)(=O)O)cc1 (stereo not given in full) | 0 | Non-toxic | Non-toxic | 0 | 1 | –
7 | COc1cc(C(=O)OC2CCC3=C(C2)CC(N2CCCCC2)C3)cc(OC)c1OC (stereo not given) | 0 | – | – | 0 | – | –
8 | O[C@H]1CC2=C(CC(N3CCCCC3)C2)C[C@@H]1O (relative stereo) | 0 | Non-toxic | Non-toxic | 50 | 0.25 | –
9 | O[C@@H]1CC2=C(CC(CN3CCCCC3)C2)C[C@@H]1O (stereo not given in full) | 0 | – | – | 0 | – | –
10 | CC(=O)O[C@H]1CC2=C(CC(N(C)C)C2)C[C@@H]1OC(C)=O (relative stereo) | 0 | – | – | 0 | – | –
11 | O[C@@H]1CC2=C(CC(N3CCCCC3)CC2)C[C@@H]1O (relative stereo) | 0 | – | – | 0 | – | –
12 | Cl.OC1CCC2=C(C1)CC(CCN1CCCCC1)C2 (stereo not given) | 0 | Non-toxic | Non-toxic | 20 | 0.25 | –
13 | CN(C)CCCC1CC[C@@]2(O)CC=CC[C@]12O (stereo not given in full) | 0 | Non-toxic | Non-toxic | 0 | – | –
14 | Cl.OC1CCC2=C(C1)CC(CN1CCCCC1)C2 (stereo not given) | 0 | Non-toxic | Non-toxic | 0 | 0.25 | –
15 | CN(C)CCCC1C2=C(CC=CC2)CCC1O (stereo not given) | 0 | – | – | 0 | – | –
16 | CC(=O)O[C@H]1CC2=C(C[C@@H]1OC(C)=O)CN(C)C2 | 0 | – | – | 0 | – | –
17 | CN1CC2=C(C[C@H](O)[C@H](O)C2)C1 | 0 | Non-toxic | Non-toxic | 0 | – | –
18 | Oc1ccc2c(c1)CC(N1CCCCC1)C2 (stereo not given) | 0 | Non-toxic | Non-toxic | > 80 | <0.25 | –

Row | Structure (SMILES) | inhibition in vivo at 5 mg/kg (Felis catus [3]) [%] | Activity (Felis catus [4]) | Activity (Felis catus [5]) | inhibition in vivo at 5 mg/kg (Felis catus [6]) [%] | Time (Felis catus [7]) [h] | further results
19 | CCCCN(Cc1ccccc1)C1CC2=C(CC(O)CC2)C1.Cl (stereo not given) | 0 | Non-toxic | Non-toxic | 20 | 1 | –
20 | OC1CCC2=C(C1)CN(C1CCCCC1)C2 (stereo not given) | 0 | Non-toxic | Non-toxic | 0 | <0.25 | –
21 | CN1CC2=C(C[C@H](O)[C@@H](O)C2)C1 (relative stereo) | 0 | Non-toxic | Non-toxic | 0 | <0.25 | –
22 | CN(C)C1CC2=C(C1)C[C@H](O)[C@H](O)C2 (stereo not given in full) | 0 | Non-toxic | Non-toxic | – | – | inhibition in vivo at 5 mg/kg (Felis catus [8]): 0%
23 | O[C@@H]1CC2=C(CC(N3CCCCC3)C2)C[C@@H]1O (stereo not given in full) | 0 | Non-toxic | Non-toxic | 0 | <0.25 | –
24 | CCCCNC1CC2=C(CC(O)CC2)C1 (stereo not given) | 0 | – | – | 0 | – | –
25 | O[C@@H]1CC2=C(CC(N3CCCCC3)C2)C[C@H]1Oc1ccccc1 (relative stereo) | 0 | Non-toxic | Non-toxic | 20 | <0.25 | –
26 | CC(=O)O[C@H]1CC2=C(CCC(N3CCCCC3)C2)C[C@H]1OC(C)=O (relative stereo) | 0 | – | – | 0 | – | –
27 | OC1CCC2=C(C1)CC(N1CCCCC1)C2 (stereo in doubt; 7) | – | – | – | – | – | Time (Felis catus [1]): >2 h
28 | OC1CC=C(CCN2CCCCC2)CC1O (stereo not given) | 0 | – | – | 0 | – | –
29 | CC(=O)OC1CC=C(CCN2CCCCC2)CC1OC(C)=O (stereo not given) | 0 | – | – | 0 | – | –
30 | CC(=O)O[C@@H]1CC2=C(CC(CN3CCCCC3)C2)C[C@H]1OC(C)=O.Cc1ccc(S(=O)(=O)O)cc1 (relative stereo) | 0 | Non-toxic | Non-toxic | 20 | <0.25 | –
31 | Br.OC1CC2=C(CC=CC2)C1CCCN1CCCCC1 (stereo not given) | 0 | Non-toxic | Non-toxic | 20 | 1 | –
32 | OC1CCC2=C(C1)CC(N1CCCC1)C2 (stereo not given) | 0 | Non-toxic | Non-toxic | 20 | 0.25 | Time (Felis catus [9]): <15 min
33 | O[C@@H]1CC2=C(CC(CN3CCCCC3)C2)C[C@H]1O (relative stereo) | 0 | Non-toxic | Non-toxic | 20 | 0 | –
34 | OC1CCC2=C(C1)CC(N1CCCCC1)C2 (mixture of isomers; 5) | – | Non-toxic | Non-toxic | – | – | Time (Felis catus [1]): 1 h; Time (Felis catus [10]): >2 h; inhibition in vivo at 2 mg/kg (Felis catus [11]): 0%; inhibition in vivo at 10 mg/kg (Felis catus [12]): 0%; inhibition (INH) (Felis catus [2]): >80%; inhibition in vivo at 10 mg/kg (Felis catus [13]): > 80%
35 | O[C@]12CC=CC[C@]1(O)CC(N1CCCCC1)C2 (relative stereo) | – | Non-toxic | Non-toxic | – | – | Time (Felis catus [9]): <15 min; inhibition in vivo at 5 mg/kg (Felis catus [8]): 0%; Time (Felis catus [14]): <15 min
